Test results reported in patent publication US10724099B2, “Multiplex methods to assay mixed cell populations simultaneously” (The Broad Institute, Inc., priority 2012, dated 2020).

Tests used:
[1] = test system: 100 human cancer cell lines; test: PRISM, 100 barcoded cancer cell lines in mixture; type: cell-based; settings: for reduction in cell viability in BRAF V600E mutant lines compared to BRAF wild-type lines: mixture, day 5
Protocol: PRISM detection was performed as follows. Genomic DNA from cell lysates was amplified by PCR using primers Biotin pLENTR4 (5′-Biotin-[sequence]-3′; SEQ ID NO:3) and pLENTF1 (5′-[sequence]-[sequence]-3′; SEQ ID NO:4). […] PCR without genomic DNA was hybridized with beads to serve as background control; signal for each bead was subtracted from each sample measurement. DMSO-treated cell mixtures were used as reference control for scaling of each cell line signal at the conclusion of each experiment (viability=100 for each cell line).
To investigate cancer vulnerabilities that are common in multiple cancer types and to examine the extent to which assaying cells in mixture may be complicated by cell-cell interactions, a panel of 100 barcoded cell lines was created comprising 18 different cancer types, and these were challenged in mixture with each of 43 anticancer compounds (including both targeted and general cytotoxic agents) in 8-point dose response. Each compound was represented by 3,200 functional measurements (100 cell lines×8 doses×4 replicates). The assays were performed as follows. Frozen mixtures of barcoded cell lines were thawed (day −2) and replated (day −1) into 384-well microtiter plates. On day 0, compounds suspended in DMSO were pinned into cultures to achieve final concentrations of 0.0012, 0.0049, 0.019, 0.078, 0.3125, 1.25, 5, or 20 μg ml-1. On day 5, cells were washed with phosphate-buffered saline and lysed for 60 minutes at 60° C. in 20 mM Tris-HCl (pH 8.4), 50 mM KCl, 0.45% IGEPAL CA-630 (Sigma cat. 18896), 0.45% Tween-20 (Sigma cat. P9416), and 10% proteinase K (Qiagen cat. 19133). Proteinase K was inactivated by a 15-minute incubation at 95° C.

[2] = test system: 100 human cancer cell lines; test: CTG (CellTiterGlo ATP), 100 cell lines grown individually; type: cell-based; settings: for reduction in cell viability in BRAF V600E mutant lines compared to BRAF wild-type lines: CTG (ATP), individual lines, day 3
Source text: (§1) To quantitatively compare the 100-cell line PRISM performance to traditional methods, PRISM was compared to the activity of 23 compounds across the same 100 cell lines grown individually, as recently reported (using either ATP content measurements using the CellTiterGlo (CTG), or direct enumeration of cell nuclei using an optical fluorescent imaging method (PerkinElmer Opera system (hereafter, OPTICAL)) and thus served as a gold standard against which PRISM could be compared (Barretina et al., Nature 483, 603 (Mar. 29, 2012)). The same parental cell lines were used in all three methods; in the PRISM method, a barcoded “daughter” line was generated from the common parental cell line. Compounds used in assays were replica-plated from the same source. The cell lines grown individually were assayed at day 3 following compound treatment, whereas the 100-cell line PRISM mixture was analyzed at day 5.
(§2) To compare the three methods for measuring cell viability, the AUC (Area Under the Curve, measured from the viability vs. logarithm of drug concentration curve) was calculated for each combination of compound and cell line and for each viability measurement method. The CTG and OPTICAL methods were generally correlated with Pearson R=0.801. CTG and PRISM correlated with R=0.663, and OPTICAL and PRISM correlated with R=0.720. […] To investigate whether particular cell lines or specific compounds were disproportionately responsible for divergent predictive results between PRISM and the other methods, we examined the ratio between […] or […]. […] In these rare cases, either the different assay conditions (5-day assay with PRISM, 3-day assay with OPTICAL and CTG) or the assay of cells in mixture might explain the discrepancy. Overall, however, PRISM appears to perform comparably to these other methods in global determinations of sensitivity to compounds in these 100 cell lines.

[3] = test system: 100 human cancer cell lines; test: OPTICAL (Opera enumeration of nuclei), 100 cell lines grown individually; type: cell-based; settings: for reduction in cell viability in BRAF V600E mutant lines compared to BRAF wild-type lines: OPTICAL (Nuclei), individual lines, day 3
Source text: as §1, §2

HCT-116 cells [4] = test: DNA content by propidium iodide flow cytometry; type: cell-based; settings: 10 μM, 24 hours or 48 hours
Protocol: In addition, HCT-116 cells were treated with 10 μM of DMSO, or the Aurora Kinase Inhibitors barasertib, GSK1070916, MLN8054, BRD-7880, or tozasertib. 24 hours or 48 hours following treatment, cells were stained with propidium iodide and DNA content per cell was assessed using a Becton Dickinson LSR II flow cytometer.

HCT-116 cells [5] = test: Western blot phosphoserine 10-histone H3; type: cell-based; settings: 10 μM
Protocol: Finally, HCT-116 cells were treated with 10 μM of DMSO, barasertib, GSK1070916, MLN8054, BRD-7880, or tozasertib. Cells lysates were probed on Western blot using antibodies (diluted 1:1000) to histone H3 (Abcam cat. no. 24834), phosphoserine 10-histone H3 (Cell Signaling Technology cat no. 3377SS), aurora kinase B (Millipore cat. no. 04-1036), or beta-actin (Santa Cruz Biotechnology cat. no. sc-47778) and detected using a LI-COR Odyssey analyzer.

[6] = test system: 25 barcoded lung adenocarcinoma cell lines; test: PRISM, mixture of 25 barcoded lung adenocarcinoma cell lines; type: cell-based, human; settings: for viability relative to DMSO-treated control (relative inhibition profile): cell lines in mixture, 0-10 μM (puromycin 0-10 μg/ml), day 5
Protocol: PRISM detection was performed as follows. Genomic DNA from cell lysates was amplified by PCR using primers Biotin pLENTR4 (5′-Biotin-[…]-3′; SEQ ID NO:3) and pLENTF1 (5′-[…]-[…]-3′; SEQ ID NO:4). PCR product was hybridized to Luminex beads with covalently attached antisense barcodes, and streptavidin-phycoerythrin addition, washing, and detection on Luminex FlexMap machines was performed as previously described (Peck et al., Genome Biol 7, R61 (2006)). PCR without genomic DNA was hybridized with beads to serve as background control; signal for each bead was subtracted from each sample measurement. DMSO-treated cell mixtures were used as reference control for scaling of each cell line signal at the conclusion of each experiment (viability=100 for each cell line).
These lines were barcoded as described above, and equal numbers of cells of each cell lines were mixed together. Cell mixtures were plated in 384-well plates on day −1. On day 0, mixtures were challenged with compounds or vehicle, and on day 5 genomic DNA was harvested and barcodes quantitated. Barcode signal background was determined using beads hybridizing to PCR reactions lacking genomic DNA templates and was subtracted from all measurements. To account for different doubling times of cell lines and different baseline signals for each cell line, the barcode signal for each cell line was scaled to the signal of the vehicle-treated control at the end of the experiment (PRISM schema shown in FIG. 1A), so that the relative growth inhibition of each cell line was assessed.

[7] = test system: 24 barcoded human lung adenocarcinoma cell lines; test: In vivo PRISM, xenograft of 24 barcoded lung adenocarcinoma cell lines in NSG mice; settings: 50 mg/kg once daily by gavage for 16 days, vs vehicle
Source text: The tumors were than resected, and the abundance of each cell line measured by PRISM.

308 kinases = test: Kinase activity profiling, Millipore KinaseProfiler; type: biochemical

SMILES: Cn1cnc2c(F)c(Nc3ccc(Br)cc3Cl)c(C(=O)NOCCO)cc21 [AZD6244]
- reduction in cell viability in BRAF V600E mutant lines compared to BRAF wild-type lines [1]: only a trend towards this reduction
- reduction in cell viability in BRAF V600E mutant lines compared to BRAF wild-type lines [2]: significant reduction
- reduction in cell viability in BRAF V600E mutant lines compared to BRAF wild-type lines [3]: only a trend towards this reduction

SMILES: CCn1cc(-c2ccnc3[nH]c(-c4cccc(CN(C)C)c4)cc23)c(-c2ccc(NC(=O)N(C)C)cc2)n1 [GSK1070916]
- DNA content per cell (HCT-116 cells [4]): increased DNA content
- phosphorylation of serine 10 on histone H3 (HCT-116 cells [5]): decrease phosphorylation of serine 10 on histone H3

SMILES: O=C(O)c1ccc(Nc2ncc3c(n2)-c2ccc(Cl)cc2C(c2c(F)cccc2F)=NC3)cc1 [MLN8054]
- DNA content per cell (HCT-116 cells [4]): increased DNA content
- phosphorylation of serine 10 on histone H3 (HCT-116 cells [5]): decrease phosphorylation of serine 10 on histone H3

SMILES: COc1cc(N2CCC(N3CCN(C)CC3)CC2)ccc1Nc1ncc(Cl)c(Nc2ccccc2S(=O)(=O)C(C)C)n1 [NVP-TAE-684]
- viability relative to DMSO-treated control (relative inhibition profile) [6]: selective killing was observed of H3122, but not H2228

SMILES: CCCS(=O)(=O)Nc1ccc(F)c(C(=O)c2c[nH]c3ncc(Cl)cc23)c1F [PLX4720]
- reduction in cell viability in BRAF V600E mutant lines compared to BRAF wild-type lines [1]: significant (two-tailed t-test, p<0.05) reductions in cell viability
- reduction in cell viability in BRAF V600E mutant lines compared to BRAF wild-type lines [2]: significant (two-tailed t-test, p<0.05) reductions in cell viability
- reduction in cell viability in BRAF V600E mutant lines compared to BRAF wild-type lines [3]: significant (two-tailed t-test, p<0.05) reductions in cell viability

SMILES: Cn1c(Nc2ccc(C(F)(F)F)cc2)nc2cc(Oc3ccnc(-c4ncc(C(F)(F)F)[nH]4)c3)ccc21 [RAF-265]
- reduction in cell viability in BRAF V600E mutant lines compared to BRAF wild-type lines [1]: a similar reduction was seen only with PRISM

SMILES: C#Cc1cccc(Nc2ncnc3cc(OCCOC)c(OCCOC)cc23)c1 [erlotinib]
- sensitivity of HCC2935 among the 4 EGFR-mutant lines in vitro ([6]; HCC2935, FIG. 1b): least sensitive
- viability relative to DMSO-treated control (relative inhibition profile) [6]: selective and dose-dependent decrease of four EGFR-mutant cell lines
- sensitivity of EGFR-mutant lines compared to EGFR wild-type lines ([1]; did not reach statistical significance): trend towards increased sensitivity
- sensitivity of EGFR-mutant lines compared to EGFR wild-type lines ([2]; CTG, did not reach statistical significance): trend towards increased sensitivity
- sensitivity of EGFR-mutant lines compared to EGFR wild-type lines ([3]; OPTICAL, did not reach statistical significance): trend towards increased sensitivity
- representation of the detectable 19 wt-EGFR lines [7]: mostly unchanged or increased in representation

SMILES: COc1ccc(C[C@H](N)C(=O)N[C@H]2[C@@H](O)[C@H](n3cnc4c(N(C)C)ncnc43)O[C@@H]2CO)cc1 [puromycin]
- viability relative to DMSO-treated control (relative inhibition profile) [6]: uniform cell death across the cell line mixture

SMILES: CNC(=O)c1cc(Oc2ccc(NC(=O)Nc3ccc(Cl)c(C(F)(F)F)c3)cc2)ccn1 [sorafenib]
- reduction in cell viability in BRAF V600E mutant lines compared to BRAF wild-type lines [1]: did not demonstrate significant reductions
- reduction in cell viability in BRAF V600E mutant lines compared to BRAF wild-type lines [2]: did not demonstrate significant reductions
- reduction in cell viability in BRAF V600E mutant lines compared to BRAF wild-type lines [3]: did not demonstrate significant reductions

SMILES: Cc1cc(Nc2cc(N3CCN(C)CC3)nc(Sc3ccc(NC(=O)C4CC4)cc3)n2)[nH]n1 [tozasertib]
- significant inhibition (defined as activity<25% control) across 308 kinases (308 kinases): inhibited aurora kinases A, B, and C, in addition to several other kinases
- DNA content per cell (HCT-116 cells [4]): increased DNA content
- phosphorylation of serine 10 on histone H3 (HCT-116 cells [5]): decrease phosphorylation of serine 10 on histone H3
